Results on 18 compounds are retold here after US10828316B2, “Method of treating bacterial infections” (priority 2016, dated 2020).

One test deals with S. aureus strain no 13. Briefly: MIC. The note with it: S. aureus strain 13, trimethoprim 2 μg/ml.
For the next test, the system named is P. aeruginosa EN015. Briefly: MIC. The note with it: Pseudomonas aeruginosa, EN015, P. aeruginosa EN015; in didanosine+trimethoprim+uridine combination. In kind it is cell-based, Pseudomonas aeruginosa.
The test system of the next test is E. coli strain no 2. Briefly: MIC. To be noted: Escherichia coli, NO2, read-out: MIC Didanosine, E. coli strain 2.
Another test relates to E. coli EN0001. Briefly: MIC. It counts as cell-based. The note with it: in didanosine+trimethoprim+uridine combination.
A further test deals with K. pneumoniae EN011. Briefly: MIC. In kind it is cell-based, Klebsiella pneumoniae. To be noted: Klebsiella pneumoniae, EN011, K. pneumoniae EN011; in didanosine+trimethoprim+uridine combination.
The test system of another test is P. aeruginosa EN0004. Briefly: MIC. To be noted: in didanosine+trimethoprim+uridine combination. In kind it is cell-based.
A further test deals with E. coli EN013. Briefly: MIC. In kind it is cell-based, Escherichia coli. The note with it: Escherichia coli, EN013, E. coli EN013; in didanosine+trimethoprim+uridine combination.
Another test concerns K. pneumoniae EN0006. Briefly: MIC. In kind it is cell-based. To be noted: in didanosine+trimethoprim+uridine combination.
The test system of a further test is A. baumannii EN0007. Briefly: MIC. It counts as cell-based, A. baumanii. To be noted: in didanosine+trimethoprim+uridine combination.
In the next test the test system is E. coli EN001. Briefly: MIC. It counts as cell-based, Escherichia coli. To be noted: in didanosine+trimethoprim+uridine combination.
The next test deals with S. flexneri APV00906. Briefly: MIC. It counts as cell-based. The note with it: for MIC: Shigella flexneri.
The subject of a further test is S. sonnei APV00908. Briefly: MIC. In kind it is cell-based. To be noted: for MIC: Shigella sonnei.
For a further test, the system named is S. flexneri APV00907. Briefly: MIC. In kind it is cell-based. The note with it: for MIC: Shigella flexneri.
The subject of a further test is K. pneumoniae EN0262. To be noted: commercial antibiotics, data provided by IMBIM, BMC, Uppsala University; cited from earlier work.
For another test, the system named is E. coli. To be noted: Ciprofloxacin 14 mg/kg; single mice.
The mark [1] stands for this setting: S. flexneri APV00906, read-out: Antibiogram MIC.
The mark [2] stands for this setting: S. sonnei APV00908, read-out: Antibiogram MIC.
[3] abbreviates: S. flexneri APV00907, read-out: Antibiogram MIC.

Values after ≈ are worked out from the molar mass of the structure shown. Like-named read-outs stand apart in the source and are kept apart here.

As for `O=c1[nH]c(=O)n([C@H]2C[C@H](O)[C@@H](CO)O2)cc1Br` [BrdUrd], the “MIC BrdUrd” value in the test on S. aureus strain no 13 (uridine 10 μg/ml) and in the test on S. aureus strain no 13 (uridine 100 μg/ml) was no more than 2 µg/mL each time.

`O=c1[nH]cnc2c1ncn2[C@H]1CC[C@@H](CO)O1` [Didanosine, didanosine]: the MIC (commonly the least concentration at which growth counts as inhibited) with P. aeruginosa EN015 is 1 µg/mL; in the test on E. coli strain no 2 (trimethoprim 0, uridine 0 μg/ml), greater than 30 µg/mL; in the test with E. coli strain no 2 (trimethoprim 0, uridine 10 μg/ml), greater than 30 µg/mL; with E. coli strain no 2 (trimethoprim 0, uridine 100 μg/ml), greater than 30 µg/mL; with E. coli strain no 2 (trimethoprim 1 μg/ml, uridine 0 μg/ml) it was greater than 2.5 µg/mL; with E. coli strain no 2 (trimethoprim 1 μg/ml, uridine 10 μg/ml), greater than 2.5 µg/mL. Moreover, the MIC is greater than 2.5 µg/mL with E. coli strain no 2 (trimethoprim 2 μg/ml, uridine 0 μg/ml); greater than 2.5 µg/mL in the test on E. coli strain no 2 (trimethoprim 2 μg/ml, uridine 10 μg/ml); 0.25 µg/mL in the test on E. coli EN0001; 0.125 µg/mL in the test with K. pneumoniae EN011; greater than 4 µg/mL in the test on P. aeruginosa EN0004; 0.016 µg/mL in the test on E. coli EN013. In addition, the MIC is 0.5 µg/mL in the test with K. pneumoniae EN0006, greater than 4 µg/mL in the test on A. baumannii EN0007 and 0.125 µg/mL in the test with E. coli EN001.

For the compound `C[C@@H](O)[C@H]1C(=O)N2C(C(=O)O)=C(S[C@@H]3CN[C@H](C(=O)Nc4cccc(C(=O)O)c4)C3)[C@H](C)[C@H]12` [Ertapenem], the MIC in the test on S. flexneri APV00906 (setting [1]), in the test on S. sonnei APV00908 (setting [2]) and with S. flexneri APV00907 (setting [3]) was no more than 0.5 µg/mL each time.

`O=C1CN(/N=C/c2ccc([N+](=O)[O-])o2)C(=O)N1` [Nitrofurantoin]: the MIC in the test on S. flexneri APV00906 (setting [1]), in the test on S. sonnei APV00908 (setting [2]) and in the test with S. flexneri APV00907 (setting [3]) was no more than 16 µg/mL each time.

As to `NCC[C@H](O)C(=O)N[C@@H]1C[C@H](N)[C@@H](O[C@H]2O[C@H](CN)[C@@H](O)[C@H](O)[C@H]2O)[C@H](O)[C@H]1O[C@H]1O[C@H](CO)[C@@H](O)[C@H](N)[C@H]1O` [amikacin], the MIC in the test on K. pneumoniae EN0262 is 8 µg/mL (≈ 13.7 µM); in the test on S. flexneri APV00906 (setting [1]) it was 16 µg/mL (≈ 27.3 µM); in the test with S. sonnei APV00908 (setting [2]) it was 4 µg/mL (≈ 6.83 µM); with S. flexneri APV00907 (setting [3]), 4 µg/mL (≈ 6.83 µM). Also, the “Antibiogram category (S, I, R, R*)” value with S. flexneri APV00906 (S. flexneri APV00906), in the test with S. sonnei APV00908 (S. sonnei APV00908) and with S. flexneri APV00907 (S. flexneri APV00907) was “R*” in each case.

On to `CC1(C)S[C@@H]2[C@H](NC(=O)[C@H](N)c3ccccc3)C(=O)N2[C@H]1C(=O)O` [ampicillin], for which, in the test on K. pneumoniae EN0262, the MIC was greater than 128 µg/mL.

Consider `C[C@H]1[C@H](NC(=O)/C(=N\OC(C)(C)C(=O)O)c2csc(N)n2)C(=O)N1S(=O)(=O)O` [aztreonam], for which the MIC with K. pneumoniae EN0262 was greater than 16 µg/mL.

In the case of `CO/N=C(\C(=O)N[C@@H]1C(=O)N2C(C(=O)[O-])=C(C[N+]3(C)CCCC3)CS[C@H]12)c1csc(N)n1` [cefepime], the MIC in the test on K. pneumoniae EN0262 is greater than 16 µg/mL; in the test on S. flexneri APV00906 (setting [1]), 2 µg/mL (≈ 4.16 µM); in the test on S. sonnei APV00908 (setting [2]) it was no more than 1 µg/mL; in the test on S. flexneri APV00907 (setting [3]), no more than 1 µg/mL.

In the case of `CO/N=C(\C(=O)N[C@@H]1C(=O)N2C(C(=O)O)=C(COC(C)=O)CS[C@H]12)c1csc(N)n1` [cefotaxime], the MIC was greater than 32 µg/mL with K. pneumoniae EN0262; no less than 64 µg/mL in the test with S. flexneri APV00906 (APV00906, read-out: Antibiogram MIC); no more than 1 µg/mL in the test with S. sonnei APV00908 (APV00908, read-out: Antibiogram MIC); no more than 1 µg/mL in the test on S. flexneri APV00907 (APV00907, read-out: Antibiogram MIC).

For `CC(C)(O/N=C(\C(=O)N[C@@H]1C(=O)N2C(C(=O)[O-])=C(C[n+]3ccccc3)CS[C@H]12)c1csc(N)n1)C(=O)O` [ceftazidime], the MIC is greater than 32 µg/mL in the test with K. pneumoniae EN0262, 16 µg/mL (≈ 29.3 µM) in the test on S. flexneri APV00906 (setting [1]), no more than 1 µg/mL with S. sonnei APV00908 (setting [2]) and no more than 1 µg/mL in the test with S. flexneri APV00907 (setting [3]).

As for `O=C(O)c1cn(C2CC2)c2cc(N3CCNCC3)c(F)cc2c1=O` [ciprofloxacin], the MIC in the test with K. pneumoniae EN0262 is greater than 2 µg/mL; in the test with S. flexneri APV00906 (setting [1]) it was no more than 0.25 µg/mL; with S. sonnei APV00908 (setting [2]) it was no more than 0.5 µg/mL; in the test on S. flexneri APV00907 (setting [3]), no more than 0.5 µg/mL. In addition, the score at sampling in the test on E. coli turned out to be 0.

For the compound `C[C@@H](O)[C@H]1C(=O)N2C(C(=O)O)=C(SCCN=CN)C[C@H]12` [imipenem], the MIC in the test with S. flexneri APV00906 (setting [1]), in the test with S. sonnei APV00908 (setting [2]) and with S. flexneri APV00907 (setting [3]) was no more than 0.25 µg/mL in each case.

`C[C@@H](O)[C@H]1C(=O)N2C(C(=O)O)=C(S[C@@H]3CN[C@H](C(=O)N(C)C)C3)[C@H](C)[C@H]12` [meropenem]: the MIC was greater than 8 µg/mL with K. pneumoniae EN0262, no more than 0.25 µg/mL with S. flexneri APV00906 (setting [1]), no more than 0.25 µg/mL in the test on S. sonnei APV00908 (setting [2]) and no more than 0.25 µg/mL in the test on S. flexneri APV00907 (setting [3]).

Take `CCN1CCN(C(=O)N[C@@H](C(=O)N[C@@H]2C(=O)N3[C@@H]2SC(C)(C)[C@@H]3C(=O)O)c2ccccc2)C(=O)C1=O` [piperacillin]: the MIC in the test on K. pneumoniae EN0262 was greater than 256 µg/mL.

For the compound `CN(C)c1cc(NC(=O)CNC(C)(C)C)c(O)c2c1C[C@H]1C[C@H]3[C@H](N(C)C)C(O)=C(C(N)=O)C(=O)[C@@]3(O)C(O)=C1C2=O` [tigecycline], the MIC with K. pneumoniae EN0262 is 2 µg/mL (≈ 3.41 µM); in the test with S. flexneri APV00906 (setting [1]) it was no more than 0.5 µg/mL; in the test on S. sonnei APV00908 (setting [2]), no more than 0.5 µg/mL; in the test on S. flexneri APV00907 (setting [3]), no more than 0.5 µg/mL.

Turning to colistin, the MIC in the test on K. pneumoniae EN0262 is 1 µg/mL.

As to gentamicin, the MIC in the test on K. pneumoniae EN0262 is 1 µg/mL. In addition, the “Antibiogram MIC” value with S. flexneri APV00906 (S. flexneri APV00906) is 4 µg/mL; in the test on S. sonnei APV00908 (S. sonnei APV00908) it was no more than 1 µg/mL; with S. flexneri APV00907 (S. flexneri APV00907), no more than 1 µg/mL. For the same compound, the “Antibiogram category (S, I, R, R*)” value in the test with S. flexneri APV00906 (S. flexneri APV00906), in the test with S. sonnei APV00908 (S. sonnei APV00908) and with S. flexneri APV00907 (S. flexneri APV00907) was “R*” each time.

perfloxacin: in the test on K. pneumoniae EN0262, the MIC is greater than 16 µg/mL.
